Test results taken from patent US8785653B2, “(3-aryl-1H-1,2,4-triazol-5-yl)-linked heterocycle derivatives” (H. Lundbeck A/S, priority 2009, dated 2014).

Assays:
PDE10A enzyme = molecular target: T1, PDE10A enzyme (Homo sapiens, UniProt Q9Y233); assay: PDE10A inhibition assay; type: biochemical; conditions: 3H-labelled cAMP substrate 5 nM, SPA beads, one hr at room temperature
T1 construct: made in house; host or cells: E. coli BL21(DE3)
Description: Active PDE10A enzyme is prepared in a number of ways for use in PDE assays (Loughney, K. et al. Gene 1999, 234, 109-117; Fujishige, K. et al. Eur J Biochem. 1999, 266, 1118-1127 and Soderling, S. et al. Proc. Natl. Acad. Sci. 1999, 96, 7071-7076). PDE10A can be expressed as full-length proteins or as truncated proteins, as long as they express the catalytic domain. PDE10A can be prepared in different cell types, for example insect cells or E. coli. An example of a method to obtain catalytically active PDE10A is as follows: The catalytic domain of human PDE10A (amino acids 440-779 from the sequence with accession number NP 006652) is amplified from total human brain total RNA by standard RT-PCR and is cloned into the BamH1 and Xho1 sites of the pET28a vector (Novagen). Expression in coil is performed according to standard protocols. Briefly, the expression plasmids are transformed into the BL21(DE3) E. coli strain, and 50 mL cultures inoculated with the cells allowed to grow to an OD600 of 0.4-0.6 before protein expression is induced with 0.5mM IPTG. Following induction, the cells are incubated overnight at room temperature, after which the cells are collected by centrifugation. Cells expressing PDE10A are resuspended in 12 mL (50 mM TRIS-HCl-pH8.0, 1 mM MgCl2 and protease inhibitors). The cells are lysed by sonication, and after all cells are lysed, TritonX100 is added according to Novagen protocols.
A PDE10A assay may for example, be performed as follows: The assay is performed in 60 uL samples containing a fixed amount of the relevant PDE enzyme (sufficient to convert 20-25% of the cyclic nucleotide substrate), a buffer (50 mM HEPES7.6; 10 mM MgCl2; 0.02% Tween20), 0.1 mg/mI BSA, 225 pCi of ^3H-labelled cyclic nucleotide substrate, tritium labeled cAMP to a final concentration of 5 nM and varying amounts of inhibitors. Reactions are initiated by addition of the cyclic nucleotide substrate, and reactions are allowed to proceed for one hr at room temperature before being terminated through mixing with 15 uL 8 mg/mL yttrium silicate SPA beads (Amersham). The beads are allowed to settle for one hr in the dark before the plates are counted in a Wallac 1450 Microbeta counter. The measured signal can be converted to activity relative to an uninhibited control (100%) and IC50 values can be calculated using the XIfit extension to EXCEL.

rats [1] = conditions: cited from earlier work
rats [2] = conditions: cited from earlier work; remark: listed apart in the source
rats [3] = conditions: cited from earlier work; remark: listed apart in the source

T1 sequence (Q9Y233 716-1055): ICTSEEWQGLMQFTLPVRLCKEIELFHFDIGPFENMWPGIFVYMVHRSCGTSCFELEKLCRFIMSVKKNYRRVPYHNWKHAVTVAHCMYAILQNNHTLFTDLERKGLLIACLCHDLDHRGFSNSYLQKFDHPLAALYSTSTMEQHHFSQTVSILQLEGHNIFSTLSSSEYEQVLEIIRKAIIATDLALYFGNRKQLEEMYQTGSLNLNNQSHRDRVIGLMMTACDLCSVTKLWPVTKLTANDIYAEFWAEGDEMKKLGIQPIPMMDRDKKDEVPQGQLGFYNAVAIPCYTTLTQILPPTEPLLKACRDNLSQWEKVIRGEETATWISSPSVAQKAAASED

Row | Structure (SMILES) | IC50 (PDE10A enzyme) [nM] | further results
1 | COc1ccc(Cc2nccc3cc(OC)c(OC)cc23)cc1OC [Papaverine, papaverine] | – | reduction of amphetamine induced hyperactivity (rats [1]): insignificant; catalepsy on its own (rats [2]; papaverine alone): did not cause catalepsy; cataleptic effect of the D2 receptor antagonist haloperidol (rats [2]; together with haloperidol): potentiated; hyperactivity induced by PCP (rats [3]): reduced hyperactivity
2 | Cc1ccc(C)n2nc(CCc3nc(-c4ccccc4)nn3C)nc12 [5,8-Dimethyl-2-[2-(2-methyl-5-phenyl-2H-[1,2,4]triazol-3-yl)-ethyl]-[1,2,4]triazolo[1,5-a]pyridine] | 6.7 | –
3 | COc1ccc(C)n2nc(CCc3nc(-c4ccccc4)nn3C(C)C)nc12 [2-[2-(2-Isopropyl-5-phenyl-2H-[1,2,4]triazol-3-yl)-ethyl]-8-methoxy-5-methyl-[1,2,4]triazolo[1,5-a]pyridine] | 56 | –
4 | Cc1ncc(C)n2nc(CCc3nc(-c4ccco4)n(C)n3)nc12 [2-[2-(5-Furan-2-yl-1-methyl-1H-[1,2,4]triazol-3-yl)-ethyl]-5,8-dimethyl-[1,2,4]triazolo[1,5-a]pyrazine] | 38 | –
5 | Cc1ncc(C)n2nc(CCc3nc(-c4cccnc4)nn3C)nc12 [5,8-Dimethyl-2-[2-(2-methyl-5-pyridin-3-yl-2H-[1,2,4]triazol-3-yl)-ethyl]-[1,2,4]triazolo[1,5-a]pyrazine] | 110 | –

Now from value to compound, other results behind:

Row | IC50 (PDE10A enzyme) [nM] | Structure (SMILES) | further results
6 | 10 | CCCn1nc(-c2ccccc2)nc1CCc1nc2c(CC)ccc(C)n2n1 [8-Ethyl-5-methyl-2-[2-(5-phenyl-2-propyl-2H-[1,2,4]triazol-3-yl)-ethyl]-[1,2,4]triazolo[1,5-a]pyridine] | melting point: 141 to 143 °C
7 | 25 | COc1ccc(C)n2nc(CCc3nc(-c4ccccc4)nn3C)nc12 [8-Methoxy-5-methyl-2-[2-(2-methyl-5-phenyl-2H-[1,2,4]triazol-3-yl)-ethyl]-[1,2,4]triazolo[1,5-a]pyridine] | –
8 | 5.6 | Cc1ncc(C)n2nc(CCc3nc(-c4cccs4)nn3C)nc12 [5,8-Dimethyl-2-[2-(2-methyl-5-thiophen-2-yl-2H-[1,2,4]triazol-3-yl)-etnyl]-[1,2,4]triazolo[1,5-a]pyrazine] | –
